Assay results published in publication PMC5062169, “Structural basis for ligand recognition by a Cache chemosensory domain that mediates carboxylate sensing in Pseudomonas syringae” (Scientific Reports, 2016).
Where two headings read alike, the source gives them in different places. Peptide text beside a SMILES is read from it.

What was measured:
[1] = biological target: T1, PscD (PscD-SD, Cache sensor domain of chemoreceptor PscD) (Pseudomonas syringae, UniProt A0ABY1U976); details: Biolog plate compound, exact concentration unknown; binder
T1 construct: gene CFBP3846_03581; sensor domain, Gln31-Trp188, N-terminal His6 tag
T1 sequence (A0ABY1U976 31-188): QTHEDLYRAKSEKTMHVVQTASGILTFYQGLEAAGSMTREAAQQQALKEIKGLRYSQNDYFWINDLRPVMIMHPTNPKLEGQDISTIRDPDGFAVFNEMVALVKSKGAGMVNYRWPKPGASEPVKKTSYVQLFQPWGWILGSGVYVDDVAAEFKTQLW
Excerpt: (§1) We used high-throughput fluorescence thermal shift (FTS) assays (as described previously[16]) to screen for potential ligands of PscD-SD. FTS assays are based on the principle that ligands stabilise proteins upon binding, causing an increase in the melting temperature of the protein[22][23]. Binding can therefore be rapidly screened by measuring the difference in the temperature midpoint of unfolding (ΔTm) of a protein in the presence and absence of potential ligands. In our FTS assays, the Tm was measured by monitoring an increase in fluorescence of a dye with affinity for hydrophobic parts of the protein (i.e. SYPRO Orange), which are exposed as the protein unfolds. We screened the recombinant PscD-SD protein in FTS assays against the compounds in Biolog Phenotype Microarray (PM) plates 1 and 2 (Supplementary Tables 1 and 2). Each plate contains 95 different compounds (e.g., organic acids, sugars) and a water (no ligand) control. For use in FTS assays, the compounds were resuspended directly in water, thus generating a library of biologically relevant potential ligands. […] Fluorescent thermal shift (FTS) assays were conducted as reported previously. PscD-SD was screened for potential ligands against Biolog Phenotype Microarray (PM) plates 1 and 2 (Biolog, Hayward, CA, USA). For initial qualitative, high-throughput screening, ligands were prepared by dissolving Biolog PM compounds in 50 μL of water (each) to obtain a final concentration of approximately 10–20 mM (the exact concentrations vary from well-to-well). Screens were set up in Lightcycler 480 multiwell plates (Roche Diagnostics, Auckland, NZ) with 20 μM protein, a 5x concentration of SYPRO orange (Life Technologies, Carlsbad, CA, USA) and 5 μL of the test compound (i.e. resuspended Biolog ligands) added to each well. The plate was covered with Lightcycler 480 sealing film (Roche Diagnostics) and fluorescence signal was monitored as the temperature was increased from 20 °C to 80 °C at a rate of 1.2 °C.min^−1 in a Lightcycler 480 (Roche Diagnostics). Initial hits were further tested using known concentrations (0, 1, 2, 5 and 10 mM) of each potential ligand to confirm binding. The ligands were prepared as 10x stocks, 2 μL were added to each well, and the experiments were conducted as described above. The first derivative values (−dF/dt) from the raw fluorescence data were used to determine the melting temperature (Tm). Three biological replicates (from independently cultured and purified batches of protein) were performed for each plate screened.

[2] = biological target: T1, PscD (PscD-SD, Cache sensor domain of chemoreceptor PscD); set-up: fluorescence thermal shift (SYPRO Orange) screen of Biolog PM1/PM2 compounds, delta Tm; details: Biolog plate compound, exact concentration unknown; binder
Excerpt: as §1

Row | SMILES | Δ Tm [1] [°C] | Δ Tm [2] [°C]
1 | COC(=O)CCC(=O)O [Mono Methyl Succinate] | 0.12 ± 0.03 | 
2 | N[C@@H](C(=O)O)[C@@H](O)[C@H](O)[C@H](O)CO [D-Glucosaminic Acid] | 0.10 ± 0.05 | 
3 | N[C@@H](CCC(=O)O)C(=O)O [L-glutamic acid] | 0.15 ±0.05 | 
4 | NCC(=O)N1CCC[C@H]1C(=O)O [Glycyl-L-Proline] (H-Gly-Pro-OH) | 0.00 ± 0.00 | 
5 | C[C@@H](O)[C@H](N)C(=O)O [L-Threonine] | 0.12 ± 0.05 | 
6 | O=CO [Formic Acid] | 0.20 ±0.03 | 
7 | OC[C@H]1O[C@@H](O[C@H]2[C@H](O)[C@@H](O)[C@@H](O)O[C@@H]2CO)[C@H](O)[C@@H](O)[C@H]1O [α-D-Lactose] | 0.12 ± 0.03 | 
8 | N[C@@H](CO)C(=O)O [L-Serine] | 0.10 ± 0.05 | 
9 | CC(=O)N[C@H]1[C@@H](O)[C@H](O)[C@@H](CO)O[C@H]1O [N-Acetyl-β-D-Mannosamine] | 0.07 ± 0.04 | 
10 | O=C(O)Cc1cccc(O)c1 [m-Hydroxy Phenyl Acetic Acid] | 0.10 ± 0.05 | 
11 | C[C@H](O)[C@@H](O)[C@@H](O)[C@H](O)C=O [L-Fucose] | 0.12 ± 0.05 | 
12 | O=C[C@H](O)[C@H](O)[C@@H](O)CO [L-Lyxose] | 0.28 ± 0.05 | 
13 | OC[C@H]1O[C@H](O[C@H]2[C@H](O)[C@@H](O)[C@H](O)O[C@@H]2CO)[C@H](O)[C@@H](O)[C@@H]1O [Maltose] | 0.20 ± 0.03 | 
14 | NCC(=O)N[C@@H](CC(=O)O)C(=O)O [Glycyl-L-Aspartic Acid] (H-Gly-Asp-OH) | 0.00 ± 0.00 | 
15 | NCCc1ccccc1 [Phenylethyl-amine] | 0.17 ± 0.05 | 
16 | CC(=O)CC(=O)O [Acetoacetic Acid] | 0.63 ± 0.05 | 
17 | OC[C@@H](O)[C@@H](O)[C@@H](O)CO [Adonitol] | 0.12 ± 0.03 | 
18 | OC[C@@H](O)[C@@H](O)[C@H](O)[C@@H](O)CO [D-Sorbitol] | 0.05 ± 0.07 | 
19 | OCC(O)CO [Glycerol] | 0.10 ± 0.05 | 

Row | SMILES | Δ Tm [1] [°C] | Δ Tm [2] [°C]
20 | O=C(O)[C@@H](O)[C@H](O)[C@H](O)[C@@H](O)C(=O)O [Mucic Acid] | 0.07 ± 0.04 | 
21 | CCC(=O)C(=O)O [α-Keto-Butyric Acid] | 0.17 ± 0.05 | 
22 | O=P(O)(O)O[C@H]1O[C@H](CO)[C@@H](O)[C@H](O)[C@H]1O [D-Glucose-1-Phosphate] | 0.10 ± 0.05 | 
23 | OC[C@H]1O[C@H](O)[C@H](O)[C@@H](O)[C@@H]1O [α-D-Glucose] | 0.12 ± 0.03 | 
24 | CC(=O)N[C@@H]1[C@@H](O)[C@H](O)[C@@H](CO)O[C@@H]1O [N-Acetyl-D-Glucosamine] | 0.10 ± 0.05 | 
25 | O=C(CO)[C@@H](O)[C@H](O)[C@H](O)CO [D-Fructose] | 0.17 ± 0.05 | 
26 | O=C[C@H](O)[C@@H](O)[C@@H](O)[C@H](O)CO [D-Galactose] | 0.17 ± 0.02 | 
27 | NC(=O)C[C@H](N)C(=O)O [L-Asparagine] | 0.00 ± 0.00 | 
28 | OC[C@@H](O)[C@@H](O)[C@H](O)[C@H](O)CO [D-Mannitol] | 0.17 ±0.05 | 
29 | C[C@H](N)C(=O)NCC(=O)O [L-Alanyl-Glycine] (H-Ala-Gly-OH) | 0.07 ± 0.08 | 
30 | OC[C@H]1OC(O)[C@@H](O)[C@@H](O)[C@@H]1O (stereo partly drawn) [D-Mannose] | 0.17 ± 0.05 | 
31 | NCCc1ccc(O)cc1 [Tyramine] | 0.12 ± 0.03 | 
32 | C[C@H](O)C(=O)O [L-Lactic Acid] | 0.12 ±0.03 | 
33 | C[N+](C)(C)CC(O)CC(=O)[O-] (racemic) [D,L-Carnitine] |  | -0.02 ± 0.02
34 | NCC(O)c1ccc(O)cc1 (racemic) [D,L-Octopamine] |  | 0.03 ± 0.03
35 | CC[C@H](C)[C@H](N)C(=O)O [L-Isoleucine] |  | 0.08 ± 0.00
36 | CC(C)[C@H](N)C(=O)O [L-Valine] |  | 0.03 ± 0.03
37 | CC(=O)N[C@@H](CO)[C@@H](O)[C@H](O)[C@H](O)CO [N-Acetyl-D-Glucosaminitol] |  | 0.08 ± 0.00
